Marks after values point to notes of the source that are not given here.
Tests used:
Type in all cases: in vivo, mouse
C57BL/6J mice [1] = assay: Acute administration of A28 at multiple doses, urinary glucose of C57BL/6J mice; details: for Total sugar excretion / Urine concentration / Urine volume: 24 h urine
Method: (1) 90 normal male C57BL/6J mice were selected and randomly divided into 9 groups according to body weight and blood glucose, 10 in each group. […] After oral gavage, the mice were placed in rats (mice) metabolic cages, […] and urine was collected after 24 h, and the urine volume was recorded, then preserved under −20° C. Rats take food and water freely during the experimental period.
(2) Index Determination: Glucose levels in urine are measured by the glucose assay kit.

C57BL/6J mice [2] = assay: Acute administration of A28 at multiple doses, oral glucose tolerance of C57BL/6J mice; details: for AUC0-2 h / Average hypoglycemic rate % (0-2 h) / Blood glucose level 15 min / Blood glucose level 30 min / Blood glucose level 60 min / Blood glucose level 90 min / Blood glucose level 120 min / Blood glucose level 0: C57BL/6J mice OGTT; for Blood glucose level 0: before sugar
Method: (1) Experimental Methods: 56 C57BL/6J mice were selected and starved for 6 h, took water freely, then randomly divided into 7 groups according to body weight and random blood glucose, 8 rats in each group. […] Average hypoglycemic rate %=(AUC0-120 min of solvent control group−AUC0-120 min of administration group)/(AUC0-120 min of solvent control group−AUC0-120 min of blank control group)*100%

db/db mice [3] = assay: Chronic administration, fasting blood glucose in db/db mice; details: for fasting blood glucose Pre: before administration; for Hypoglycemic rate % week 1 / Hypoglycemic rate % week 2 / Hypoglycemic rate % week 3 / Hypoglycemic rate % week 4: fasting blood glucose
Method: (§1) Oral gavage administrated, daily dose volume was 10 mL/kg, administered once daily. Administration time was 9: 00-10:00 daily, and the administration period was 5 weeks.
The random blood glucose of mice in the normal control group, model control group, test substance administration group and positive control group were determined on the 7th, 14th, 21st, 28th day (9: 00-10:00) every week after the first administration, and food was removed and after 6 hours of starvation, the fasting blood glucose in each group was measured. Free drinking during the hunger process. The rate of decrease of blood glucose was calculated according to the following formula: Average hypoglycemic rate %=(Blood glucose of model control group−Blood glucose of administration group)/Model control group×100%

db/db mice [4] = assay: Chronic administration, oral glucose tolerance in db/db mice; details: for Blood glucose AUC0-2 h / Blood glucose (mmol/L) 0 min / Blood glucose (mmol/L) 15 min / Blood glucose (mmol/L) 30 min / Blood glucose (mmol/L) 60 min / Blood glucose (mmol/L) 90 min / Blood glucose (mmol/L) 120 min / AUC0-2 h reduction rate (%): glucose tolerance, chronic administration; for AUC0-2 h reduction rate (%): vs vehicle
Method: as §1
The glucose tolerance of mice of normal control group, model control group, test substance group and positive control group were determined 3 weeks after administration of drug, oral administrated with 1.5 g/kg of glucose, and taken 2 μL of blood on the tail. 4 μL of normal saline was added to 96 well sharp bottom plate to dilute evenly, and then the blood glucose was measured. The blood glucose levels before the sugar administration and at 15, 30, 60, 90 and 120 min after the sugar administration were measured. The true blood glucose level was calculated and the area under the blood glucose curve within 120 min was calculated by the following formula: AUC0-2h (mmol/L·h)=(BG0+BG15)×0.25/2+(BG15+BG30)×0.25/2+(BG30+BG60)×0.5/2+(BG60+[…])×1.0/2 Note: BG0, BG15, BG30, BG60 and BG120 represent the blood glucose levels before the sugar administration, and at 15, 30, 60, and 120 min after sugar administration, respectively. Average hypoglycemic rate %=(solvent control group AUC0-2h−administration group AUC0-2h)/solvent control group AUC0-2h*100%

## CCc1ccc(Cc2cc3c(cc2Cl)CO[C@]32O[C@H](C)[C@@H](O)[C@H](O)[C@H]2O)s1 [Example A28, (1S,3′R,4′S,5′S,6′R)-6′-methyl-6-((5-ethylthienyl)-2-methyl)-5-chloro-3′,4′,5′,6′-tetrahydro-3H-spiro[isobenzofuran-1,2′-pyran]-3′,4′,5′-triol]
C57BL/6J mice [1]; at the same dose
  urinary exclusion effect compared with Dapagliflozin: equal to or stronger than positive control Dapagliflozin
C57BL/6J mice [1]; oral 0.3 mg/kg
  Total sugar excretion: 10.31 ± 3.26 mg/100 g
  Urine concentration: 7.91 ± 2.50 mmol/L
  Urine volume: 2.1 ± 0.7 mL
C57BL/6J mice [1]; oral 1 mg/kg
  Total sugar excretion: 175.49 ± 55.53 mg/100 g
  Urine concentration: 133.28 ± 42.18 mmol/L
  Urine volume: 1.8 ± 0.6 mL
C57BL/6J mice [1]; oral 3 mg/kg
  Total sugar excretion: 440.02 ± 139.25 mg/100 g
  Urine concentration: 265.71 ± 84.09 mmol/L
  Urine volume: 2.1 ± 0.7 mL
C57BL/6J mice [1]; oral 10 mg/kg
  Total sugar excretion: 712.00 ± 225.32 mg/100 g
  Urine concentration: 344.07 ± 108.88 mmol/L
  Urine volume: 2.5 ± 0.8 mL
C57BL/6J mice [1]; single oral, within 24 hours
  effective dose, urine glucose excretion: ≤ 0.3 mg/kg
C57BL/6J mice [2]; oral 0.3 mg/kg
  AUC0-2 h: 21.6 ± 1.5 mmol·h/L
  Average hypoglycemic rate % (0-2 h): 2.0%
  Blood glucose level 15 min: 14.2 ± 2.1 mmol/L
  Blood glucose level 30 min: 13.0 ± 1.7 mmol/L
  Blood glucose level 60 min: 11.2 ± 0.8 mmol/L
  Blood glucose level 90 min: 9.1 ± 1.0 mmol/L
  Blood glucose level 120 min: 8.3 ± 1.0 mmol/L
  Blood glucose level 0: 7.5 ± 0.4 mmol/L
C57BL/6J mice [2]; oral 1 mg/kg
  AUC0-2 h: 19.8 ± 1.0 mmol·h/L
  Average hypoglycemic rate % (0-2 h): 10.0%
  Blood glucose level 15 min: 12.5 ± 1.6 mmol/L
  Blood glucose level 30 min: 12.0 ± 0.8 mmol/L
  Blood glucose level 60 min: 9.9 ± 0.9 mmol/L
  Blood glucose level 90 min: 8.7 ± 0.7 mmol/L
  Blood glucose level 120 min: 7.9 ± 0.7 mmol/L
  Blood glucose level 0: 7.1 ± 0.6 mmol/L
C57BL/6J mice [2]; oral 3 mg/kg
  AUC0-2 h: 18.5 ± 0.6 mmol·h/L
  Average hypoglycemic rate % (0-2 h): 16.2%
  Blood glucose level 15 min: 10.4 ± 1.0 mmol/L
  Blood glucose level 30 min: 11.3 ± 1.1 mmol/L
  Blood glucose level 60 min: 9.5 ± 0.7 mmol/L
  Blood glucose level 90 min: 8.4 ± 0.7 mmol/L
  Blood glucose level 120 min: 7.4 ± 0.6 mmol/L
  Blood glucose level 0: 6.4 ± 0.7 mmol/L
C57BL/6J mice [2]; C57BL/6J mice, once administrated
  effective dose, reduction of blood glucose AUC within 2 h after sugar: 1 mg/kg
db/db mice [3]; 0.3 mg/kg once daily oral
  fasting blood glucose week 1: 10.6 ± 0.9 mmol/L
  fasting blood glucose week 2: 10.5 ± 0.8 mmol/L
  fasting blood glucose week 3: 12.3 ± 0.9 mmol/L
  fasting blood glucose week 4: 12.6 ± 1.2 mmol/L
  fasting blood glucose Pre: 13.2 ± 0.7 mmol/L
  Hypoglycemic rate % week 1: 21.4%
  Hypoglycemic rate % week 2: 52.3%
  Hypoglycemic rate % week 3: 30.6%
  Hypoglycemic rate % week 4: 21.1%
db/db mice [3]; 1 mg/kg once daily oral
  fasting blood glucose week 1: 8.7 ± 0.6 mmol/L
  fasting blood glucose week 2: 9.4 ± 0.9 mmol/L
  fasting blood glucose week 3: 10.4 ± 1.0 mmol/L
  fasting blood glucose week 4: 10.0 ± 0.7 mmol/L
  fasting blood glucose Pre: 13.2 ± 1.3 mmol/L
  Hypoglycemic rate % week 1: 35.0%
  Hypoglycemic rate % week 2: 57.2%
  Hypoglycemic rate % week 3: 41.5%
  Hypoglycemic rate % week 4: 37.8%
db/db mice [3]; 3 mg/kg once daily oral
  fasting blood glucose week 1: 8.6 ± 0.5 mmol/L
  fasting blood glucose week 2: 6.8 ± 0.6 mmol/L
  fasting blood glucose week 3: 8.1 ± 0.5 mmol/L
  fasting blood glucose week 4: 8.5 ± 0.6 mmol/L
  fasting blood glucose Pre: 13.5 ± 1.5 mmol/L
  Hypoglycemic rate % week 1: 36.2%
  Hypoglycemic rate % week 2: 69.2%
  Hypoglycemic rate % week 3: 54.2%
  Hypoglycemic rate % week 4: 46.8%
db/db mice [3]; 10 mg/kg once daily oral
  fasting blood glucose week 1: 7.6 ± 0.6 mmol/L
  fasting blood glucose week 2: 6.9 ± 0.5 mmol/L
  fasting blood glucose week 3: 7.2 ± 0.6 mmol/L
  fasting blood glucose week 4: 7.3 ± 0.5 mmol/L
  fasting blood glucose Pre: 13.8 ± 1.2 mmol/L
  Hypoglycemic rate % week 1: 43.2%
  Hypoglycemic rate % week 2: 68.9%
  Hypoglycemic rate % week 3: 59.5%
  Hypoglycemic rate % week 4: 54.5%
db/db mice [3]; four weeks chronic administration
  effective dose, fasting blood glucose, random blood glucose and HbA1c reduction: 0.3 mg/kg
db/db mice [4]; after 3 weeks of chronic administration
  improvement of oral glucose tolerance compared with Dapagliflozin: stronger than that of Dapagliflozin of the same dose
db/db mice [4]; dose 0.3 mg/kg
  Blood glucose AUC0-2 h: 6.3 ± 1.3
  Blood glucose (mmol/L) 0 min: 12.3 ± 0.9 mmol/L
  Blood glucose (mmol/L) 15 min: 22.7 ± 1.4 mmol/L
  Blood glucose (mmol/L) 30 min: 21.4 ± 1.1 mmol/L
  Blood glucose (mmol/L) 60 min: 13.5 ± 0.7 mmol/L
  Blood glucose (mmol/L) 90 min: 12.5 ± 0.9* * mmol/L
  Blood glucose (mmol/L) 120 min: 10.9 ± 1.0* * mmol/L
  AUC0-2 h reduction rate (%): 57.2%
db/db mice [4]; dose 1 mg/kg
  Blood glucose AUC0-2 h: 4.7 ± 1.9
  Blood glucose (mmol/L) 0 min: 10.4 ± 1.0 mmol/L
  Blood glucose (mmol/L) 15 min: 16.9 ± 0.8 mmol/L
  Blood glucose (mmol/L) 30 min: 18.7 ± 0.7 mmol/L
  Blood glucose (mmol/L) 60 min: 11.1 ± 0.5 mmol/L
  Blood glucose (mmol/L) 90 min: 10.4 ± 0.6* * mmol/L
  Blood glucose (mmol/L) 120 min: 8.7 ± 0.5 mmol/L
  AUC0-2 h reduction rate (%): 68.2%
db/db mice [4]; dose 3 mg/kg
  Blood glucose AUC0-2 h: 6.1 ± 0.9
  Blood glucose (mmol/L) 0 min: 8.1 ± 1.0 mmol/L
  Blood glucose (mmol/L) 15 min: 16.1 ± 2.4 mmol/L
  Blood glucose (mmol/L) 30 min: 17.4 ± 2.6 mmol/L
  Blood glucose (mmol/L) 60 min: 9.1 ± 1.0 mmol/L
  Blood glucose (mmol/L) 90 min: 8.9 ± 0.8 mmol/L
  Blood glucose (mmol/L) 120 min: 6.9 ± 0.8 mmol/L
  AUC0-2 h reduction rate (%): 58.9%
db/db mice [4]; dose 10 mg/kg
  Blood glucose AUC0-2 h: 2.3 ± 0.8
  Blood glucose (mmol/L) 0 min: 7.2 ± 0.6 mmol/L
  Blood glucose (mmol/L) 15 min: 11.3 ± 0.6 mmol/L
  Blood glucose (mmol/L) 30 min: 12.3 ± 1.0 mmol/L
  Blood glucose (mmol/L) 60 min: 7.1 ± 0.5 mmol/L
  Blood glucose (mmol/L) 90 min: 6.5 ± 0.3 mmol/L
  Blood glucose (mmol/L) 120 min: 6.2 ± 0.5 mmol/L
  AUC0-2 h reduction rate (%): 84.6%

— patent US10550143B2, “C,O-spiro aryl glycoside compounds, preparation therefor and use thereof” (SHANGHAI INSTITUTE OF MATERIA MEDICA, CHINESE ACADEMY OF …, priority 2015, dated 2020)
